The supplement of paper PMC10307832

Tests used:
Experiment in all cases: relative viability (nuclei count vs DMSO), 5 days (fraction); higher = more cells survive
[1] = test system: NCI-H596
Procedure, shortened: (§1)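 Dosing by pin tool came one day after lung cancer cell lines were seeded in 1536-well plates, using either one drug or a fixed anchor-drug dose plus five library-drug doses (not always all listed) in √10 steps. After 5 days, nuclei were counted on 4× images. Relative viability is treated-well nuclei count divided by vehicle-well nuclei count, and values are medians of duplicate plates.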

[2] = test system: EPLC-272H
Procedure, shortened: as §1

[3] = test system: NCI-H2087
Procedure, shortened: as §1

[4] = test system: HARA
Procedure, shortened: as §1

[5] = test system: NCI-H441
Procedure, shortened: as §1

[6] = test system: NCI-H661
Procedure, shortened: as §1

[7] = test system: PC-14
Procedure, shortened: as §1

[8] = test system: NCI-H1793
Procedure, shortened: as §1

[9] = test system: NCI-H2126
Procedure, shortened: as §1

[10] = test system: HCC-78
Procedure, shortened: as §1

[11] = test system: LCLC-97TM1
Procedure, shortened: as §1

[12] = test system: LXF-289
Procedure, shortened: as §1

[13] = test system: HOP-62
Procedure, shortened: as §1

[14] = test system: COR-L23
Procedure, shortened: as §1

[15] = test system: H3255
Procedure, shortened: as §1

[16] = test system: NCI-H1395
Procedure, shortened: as §1

[17] = test system: NCI-H3122
Procedure, shortened: as §1

[18] = test system: NCI-H2085
Procedure, shortened: as §1

[19] = test system: NCI-H1666
Procedure, shortened: as §1

[20] = test system: NCI-H1437
Procedure, shortened: as §1

[21] = test system: NCI-H1944
Procedure, shortened: as §1

Compound: CCNC(=O)c1noc(-c2cc(C(C)C)c(O)cc2O)c1-c1ccc(CN2CCOCC2)cc1 [Luminespib] + C[C@]1(O)C[C@@H](c2nc(-c3ccc4ccc(-c5ccccc5)nc4c3)c3c(N)nccn32)C1 [Linsitinib] (partner 1 µM)
- relative viability ([1]; first compound 0.002 µM): 1.06
- relative viability ([1]; first compound 0.006325 µM): 0.995
- relative viability ([1]; first compound 0.06325 µM): 1.06
- relative viability ([1]; first compound 0.2 µM): 0.907
- relative viability ([2]; first compound 0.006325 µM): 1.07
- relative viability ([2]; first compound 0.02 µM): 0.727
- relative viability ([2]; first compound 0.06325 µM): 1.11
- relative viability ([2]; first compound 0.2 µM): 1.14
- relative viability ([3]; first compound 0.002 µM): 1.01
- relative viability ([3]; first compound 0.006325 µM): 0.714
- relative viability ([3]; first compound 0.02 µM): 1.08
- relative viability ([3]; first compound 0.06325 µM): 0.263
- relative viability ([3]; first compound 0.2 µM): 0.204
- relative viability ([4]; first compound 0.002 µM): 0.85
- relative viability ([4]; first compound 0.006325 µM): 0.797
- relative viability ([4]; first compound 0.02 µM): 1.12
- relative viability ([4]; first compound 0.06325 µM): 0.738
- relative viability ([4]; first compound 0.2 µM): 0.0694
- relative viability ([5]; first compound 0.002 µM): 0.797
- relative viability ([5]; first compound 0.006325 µM): 0.5
- relative viability ([5]; first compound 0.02 µM): 0.485
- relative viability ([5]; first compound 0.06325 µM): 0.108
- relative viability ([5]; first compound 0.2 µM): 0.0934
- relative viability ([6]; first compound 0.002 µM): 0.569
- relative viability ([6]; first compound 0.006325 µM): 0.527
- relative viability ([6]; first compound 0.02 µM): 0.369
- relative viability ([6]; first compound 0.06325 µM): 0.395
- relative viability ([6]; first compound 0.2 µM): 0.187
- relative viability ([7]; first compound 0.002 µM): 0.896
- relative viability ([7]; first compound 0.006325 µM): 0.897
- relative viability ([7]; first compound 0.02 µM): 1.09
- relative viability ([7]; first compound 0.06325 µM): 0.936
- relative viability ([7]; first compound 0.2 µM): 0.146
- relative viability ([8]; first compound 0.002 µM): 0.831
- relative viability ([8]; first compound 0.006325 µM): 0.798
- relative viability ([8]; first compound 0.02 µM): 0.326
- relative viability ([8]; first compound 0.06325 µM): 0.16
- relative viability ([8]; first compound 0.2 µM): 0.147
- relative viability ([9]; first compound 0.002 µM): 0.686
- relative viability ([9]; first compound 0.006325 µM): 0.652
- relative viability ([9]; first compound 0.02 µM): 0.536
- relative viability ([9]; first compound 0.06325 µM): 0.761
- relative viability ([9]; first compound 0.2 µM): 0.741
- relative viability ([10]; first compound 0.002 µM): 0.485
- relative viability ([10]; first compound 0.06325 µM): 0.76
- relative viability ([10]; first compound 0.2 µM): 0.251
- relative viability ([11]; first compound 0.002 µM): 0.213
- relative viability ([11]; first compound 0.006325 µM): 0.199
- relative viability ([11]; first compound 0.02 µM): 0.154
- relative viability ([11]; first compound 0.06325 µM): 0.174
- relative viability ([11]; first compound 0.2 µM): 0.192
- relative viability ([12]; first compound 0.002 µM): 0.952
- relative viability ([12]; first compound 0.006325 µM): 0.879
- relative viability ([12]; first compound 0.02 µM): 1.12
- relative viability ([12]; first compound 0.06325 µM): 0.711
- relative viability ([12]; first compound 0.2 µM): 0.151
- relative viability ([13]; first compound 0.002 µM): 1.07
- relative viability ([13]; first compound 0.006325 µM): 0.958
- relative viability ([13]; first compound 0.02 µM): 0.945
- relative viability ([13]; first compound 0.06325 µM): 1.12
- relative viability ([13]; first compound 0.2 µM): 0.934
- relative viability ([14]; first compound 0.002 µM): 0.946
- relative viability ([14]; first compound 0.006325 µM): 0.811
- relative viability ([14]; first compound 0.02 µM): 1.03
- relative viability ([14]; first compound 0.06325 µM): 0.0654
- relative viability ([14]; first compound 0.2 µM): 0.0696
- relative viability ([15]; first compound 0.002 µM): 0.929
- relative viability ([15]; first compound 0.006325 µM): 0.868
- relative viability ([15]; first compound 0.02 µM): 0.65
- relative viability ([15]; first compound 0.06325 µM): 0.885
- relative viability ([15]; first compound 0.2 µM): 0.228
- relative viability ([16]; first compound 0.002 µM): 1.06
- relative viability ([16]; first compound 0.006325 µM): 1.02
- relative viability ([16]; first compound 0.02 µM): 0.759
- relative viability ([16]; first compound 0.06325 µM): 0.772
- relative viability ([16]; first compound 0.2 µM): 0.326
- relative viability ([17]; first compound 0.002 µM): 0.936
- relative viability ([17]; first compound 0.006325 µM): 0.973
- relative viability ([17]; first compound 0.02 µM): 0.945
- relative viability ([17]; first compound 0.06325 µM): 0.172
- relative viability ([17]; first compound 0.2 µM): 0.146
- relative viability ([18]; first compound 0.002 µM): 0.405
- relative viability ([18]; first compound 0.006325 µM): 0.76
- relative viability ([18]; first compound 0.02 µM): 0.826
- relative viability ([18]; first compound 0.06325 µM): 0.442
- relative viability ([18]; first compound 0.2 µM): 0.241
- relative viability ([19]; first compound 0.002 µM): 0.707
- relative viability ([19]; first compound 0.006325 µM): 0.785
- relative viability ([19]; first compound 0.02 µM): 0.751
- relative viability ([19]; first compound 0.06325 µM): 0.803
- relative viability ([19]; first compound 0.2 µM): 0.511
- relative viability ([20]; first compound 0.002 µM): 1.06
- relative viability ([20]; first compound 0.006325 µM): 0.989
- relative viability ([20]; first compound 0.02 µM): 1.08
- relative viability ([20]; first compound 0.06325 µM): 0.22
- relative viability ([20]; first compound 0.2 µM): 0.0998
- relative viability ([21]; first compound 0.002 µM): 1.21
- relative viability ([21]; first compound 0.006325 µM): 1.1
- relative viability ([21]; first compound 0.02 µM): 0.791
- relative viability ([21]; first compound 0.06325 µM): 1.07
- relative viability ([21]; first compound 0.2 µM): 1.09
